Data from US9693983B2, “Use of glyceryl trinitrate for treating traumatic edema” (G. Pohl-Boskamp GmbH & Co. KG, priority 2010, dated 2017).

Test system: traumatic edema
Experiment: Topical application of GTN to traumatic edema, general observation
Format: in vivo
Text: The detumescence of the swelling associated with a traumatic edema is accelerated; instead of darkening of the skin, the healing occurs with a green, followed by a yellow, coloration of the affected skin area.

SMILES: O=[N+]([O-])OCC(CO[N+](=O)[O-])O[N+](=O)[O-] [GTN, glyceryl trinitrate]
- typical swelling and darkening of the affected skin sites (1.2 to 6 mg GTN on day of injury, then 0.8 to 1.6 mg GTN daily, topical): reduces and/or prevents
- individual healing phases (compared to an untreated edema): significantly shortened
- reduction of overall healing period for the treated edemas (compared to an untreated edema): one-half
- healing of traumatic edema (topically applied): greatly accelerates
